According to ChEMBL document CHEMBL1156829 (Proc Natl Acad Sci U S A, 2008):
pEC50: −log10 of the molar value.

Key:
Plasmodium falciparum [1] = test: NOVARTIS: Inhibition of Plasmodium falciparum 3D7 (drug-susceptible) proliferation in erythrocyte-based infection assay; assay type: functional, organism-based; conditions: Plasmodium falciparum, 3D7
Plasmodium falciparum [2] = test: NOVARTIS: Inhibition of Plasmodium falciparum W2 (drug-resistant) proliferation in erythrocyte-based infection assay; assay type: functional, organism-based; conditions: Plasmodium falciparum, W2; read-out: EC50
[3] = NOVARTIS: Cytotoxicity against human hepatocellular carcinoma cell line (Huh7); assay type: toxicity, cell-based, Huh-7; conditions: Huh7 cells (hepatocellular carcinoma cell line)

Compound	pEC50 (Plasmodium falciparum [1])	pEC50 (Plasmodium falciparum [2])	CC50 [3] [nM]
N#Cc1ccc(NC(=O)c2cc(Cl)ccc2O)cc1	5.96	6.00	> 10000
O=C(Cn1nc([N+](=O)[O-])nc1Br)NC1CCCCC1	5.35	5.57	> 100000
COc1ccc(CNc2ncnc3c2[nH]c2cc(OC)ccc23)cc1	6.02	6.07	24100
CCC(C)C(=O)N1CCC(C(=O)Nc2ccc(-c3nc4ccccc4o3)cc2)CC1 (stereo not given)	5.73	5.80	> 100000
COc1ccc(NC(=O)C=Cc2ccccc2Cl)cc1	6.01	6.24	> 100000
O=C(Cn1c2ccccc2c(=O)c2ccc(Cl)cc21)Nc1ccc(C(F)(F)F)cc1	5.01	5.34	> 100000
Clc1ccc(-c2c[n+](-c3ccccc3)c3n2CCS3)cc1	6.51	6.63	> 100000
O=C(C(Cc1c[nH]c2ccccc12)NS(=O)(=O)c1ccc(Cl)cc1)N1CCCCC1 (stereo not given)	6.14	6.31	> 100000
Cc1cc(NC(=O)c2ccc(S(=O)(=O)N(Cc3ccccc3)C(C)C)cc2)no1	5.57	6.27	> 100000
CCc1c(C)c(C#N)c2nc3ccccc3n2c1NCc1ccco1	6.57	6.48	> 100000
CCOC(=O)c1c(NC(=O)CSc2nnc(CNC(=O)c3cccc(C)c3)n2-c2cccc(C)c2)sc2c1CCC2	< 5.80	< 5.93	> 10000
C#CC(C)(C)NS(=O)(=O)c1cc(-c2nnc(Nc3cccc(C)c3)c3ccccc23)ccc1C	5.98	< 5.90	> 10000
CCCC(C(=O)OCC)C(C)=NNc1ccccc1[N+](=O)[O-] (stereo not given)	5.90	5.78	> 100000
COc1cc2nc(Nc3cccc(F)c3)nc(N)c2cc1OC	6.83	6.45	20100
CSC(Cl)=C(NC(C)=O)[P+](c1ccccc1)(c1ccccc1)c1ccccc1	6.90	6.59	> 100000
CC(C)(C)C(/C=C/c1ccc(Cl)cc1Cl)n1nnnc1C1(Nc2ccc(Cl)cc2)CCCCC1 (stereo not given)	< 5.90	< 5.98	> 10000
CCN(CC)CCCN(Cc1cc2cc(OC)ccc2[nH]c1=O)C(=S)Nc1cccc(Cl)c1	6.10	6.09	20500
Oc1ccc(-c2cccnc2)cc1CNCC1CC2C=CC1C21CC1 (stereo not given)	6.08	> 7.63	> 10000

Compound	pEC50 (Plasmodium falciparum [1])	pEC50 (Plasmodium falciparum [2])	CC50 [3] [nM]
CCOC(=O)c1c(CNCCN(CC)CC)n(C)c2cc(Br)c(OC(C)=O)cc12	6.08	6.51	> 100000
O=C1c2ccc(-c3nc(-c4ccccc4)[nH]c3-c3ccccc3)cc2-c2cc(-c3[nH]c(-c4ccccc4)nc3-c3ccccc3)ccc21	5.04	5.05	> 100000
O=C1C(Nc2ccccc2)=C(N2CCCCC2)C(=O)c2ccccc21	6.42	6.23	15000
C#CC[N+]1(CC#Cc2cccc3ccccc23)CCCCC1	6.01	6.32	> 100000
CCN(CC)CCCN(Cc1cc2ccc(OC)cc2[nH]c1=O)C(=S)NCc1ccccc1	5.41	5.62	25800
Cc1c(Cc2ccccc2)sc(N=Cc2ccc(Br)s2)c1C(N)=O	6.35	6.50	> 10000
CC(=O)Nc1ccc2c(c1)C(=O)N(C(C(=O)NC1CCCCC1)c1ccc([N+](=O)[O-])cc1)[C@@H](c1ccccc1)C(=O)N2 (stereo not given in full)	< 5.90	< 6.06	7680
CC1=C(CC(=O)c2ccc(Cl)cc2)C(=O)c2ccccc2C1=O	5.56	5.99	46600
CN(C)c1ccc(/C=C2/SC(=Nc3ccc(O)cc3)NC2=O)cc1	5.55	< 4.90	> 100000
O=C1C(=O)c2ncccc2-c2cccnc21 [PHANQUONE]	6.19	6.43	5910
COCCOC(=O)NCc1ccc(Nc2c(C(C)(C)C)nc3cnccn23)cc1	6.99	7.81	> 10000
CCc1ccc(NC(=O)C2c3ccccc3C(=O)N(CC(C)C)C2c2cccs2)cc1 (stereo not given)	5.64	6.22	> 100000
COCCN1C(=O)c2[nH]nc(-c3ccccc3O)c2C1c1ccc(SC)cc1 (stereo not given)	5.13	5.56	> 87600
CCOC(=O)C1=C(C)N(CCNc2ncc(C(F)(F)F)cc2Cl)C(=O)CC1	5.12	5.08	> 100000
CC(=O)Oc1ccccc1-c1nc2ccccn2c1NC(C)(C)CC(C)(C)C	6.31	7.44	> 9440
COc1ccc(/C=C(\NC(=O)c2ccccc2Br)C(=O)N2CC3CC(C2)c2cccc(=O)n2C3)cc1OC (stereo not given)	< 6.12	< 5.90	> 10000
Cn1c(SCc2cccc([N+](=O)[O-])c2)nc2c(c1=O)SCC2	5.48	5.55	> 100000
